From patent US20030022821A1, “Bioactive peptides” (priority 1998, published 2003)
In brackets after ≈: the same amount, converted by molar mass. Read-outs that look alike come from different tables or passages of the source. Ends that are not written are not given here. Peptide text beside a SMILES is read from it. * marks the point of attachment. Acm = CC(=O)NC*

Assays:
[1] = test system: Escherichia coli ATCC 25922; type: cell-based
Method: (§1) The bacterial strains used were: Escherichia coli ATCC 25922 and Staphylococcus aureus ATCC 25923. All strains were stored at −70° C. The bacteria were grown in 2% Bacto Peptone water (Difco 1807-17-4). All tests were performed with bacteria in mid-logarithmic growth phase. Determination of the minimum inhibitory concentration (MIC) of the peptides for bacterial strains were performed in 1% Bacto Peptone water. A standard microdilution technique with an inoculum of 2×10^6 CFU/ml was used. All assays were performed in triplets. Since the peptides are positively charged and therefore could adhere to the plastic wells, we controlled the actual concentration of the peptides in the solution by HPLC. There was no difference between the concentration of the peptides before or after adding the solution to the plastic wells.

[2] = test system: Staphylococcus aureus ATCC 25923; type: cell-based
Method: as §1

| MIC E. coli ([1]; ATCC 25922) [µg/mL] | MIC S. aureus ([2]; ATCC 25923) [µg/mL] | Compound | further results |
| --- | --- | --- | --- |
| 500 (≈ 252 µM) | >1000 | CSCC[C@H](NC(=O)[C@H](CCC(=O)O)NC(=O)[C@H](Cc1c[nH]c2ccccc12)NC(=O)[C@H](CCC(N)=O)NC(=O)[C@H](Cc1c[nH]c2ccccc12)NC(=O)[C@H](CCCNC(=N)N)NC(=O)[C@H](CC(C)C)NC(=O)[C@H](CSCNC(C)=O)NC(=O)[C@H](CCCCN)NC(=O)[C@H](C)N)C(=O)N[C@@H](CCCNC(=N)N)C(=O)N[C@@H](CCCCN)C(=O)N[C@@H](Cc1ccc(O)cc1)C(=O)NCC(=O)NCC(=O)O [LFM A1 W8 Y13] (H-AKC(Acm)LRWQWEMRKYGG-OH; N-terminus and C-terminus assumed) |  |
| 25 (≈ 11.9 µM) | 50 (≈ 23.9 µM) | CSCC[C@H](NC(=O)[C@H](CCCNC(=N)N)NC(=O)[C@H](Cc1c[nH]c2ccccc12)NC(=O)[C@H](CCC(N)=O)NC(=O)[C@H](Cc1c[nH]c2ccccc12)NC(=O)[C@H](CCCNC(=N)N)NC(=O)[C@H](CC(C)C)NC(=O)[C@H](CSCNC(C)=O)NC(=O)[C@H](CCCCN)NC(=O)[C@@H](N)CCCNC(=N)N)C(=O)N[C@@H](CCCNC(=N)N)C(=O)N[C@@H](CCCCN)C(=O)N[C@@H](Cc1ccc(O)cc1)C(=O)NCC(=O)NCC(=O)O [LFM R1, 9 W8 Y13] (H-RKC(Acm)LRWQWRMRKYGG-OH; N-terminus and C-terminus assumed) |  |
| 150 (≈ 77.9 µM) | >1000 | CSCC[C@H](NC(=O)[C@H](C)NC(=O)[C@H](Cc1c[nH]c2ccccc12)NC(=O)[C@H](CCC(N)=O)NC(=O)[C@H](Cc1c[nH]c2ccccc12)NC(=O)[C@H](CCCNC(=N)N)NC(=O)[C@H](CC(C)C)NC(=O)[C@H](CSCNC(C)=O)NC(=O)[C@H](CCCCN)NC(=O)[C@H](C)N)C(=O)N[C@@H](CCCNC(=N)N)C(=O)N[C@@H](CCCCN)C(=O)N[C@@H](Cc1ccc(O)cc1)C(=O)NCC(=O)NCC(=O)O [LFM A1, 9 W8 Y13] (H-AKC(Acm)LRWQWAMRKYGG-OH; N-terminus and C-terminus assumed) |  |
| 200 (≈ 112 µM) | >250 | CSCC[C@H](NC(=O)[C@H](CCCNC(=N)N)NC(=O)[C@H](Cc1c[nH]c2ccccc12)NC(=O)[C@H](CCC(N)=O)NC(=O)[C@H](Cc1c[nH]c2ccccc12)NC(=O)[C@H](CCCNC(=N)N)NC(=O)[C@H](CCCNC(=N)N)NC(=O)[C@@H](N)CSCNC(C)=O)C(=O)N[C@@H](CCCCN)C(=O)N[C@@H](CCCCN)C(=O)N[C@@H](CC(C)C)C(=O)NCC(=O)N[C@@H](C)C(=O)O [LFB 19-31] (H-C(Acm)RRWQWRMKKLGA-OH; N-terminus assumed) | MIC E. coli ATCC 25922 ([1]; ATCC 25922): 200 µg/mL; MIC E. coli ATCC 25922 ([1]; Table 1, value in brackets): 120 µM; MIC S. aureus ATCC 25923 ([2]; ATCC 25923): > 250 µg/mL; MIC S. aureus ATCC 25923 ([2]; Table 1, value in brackets): > 150 µM |
| 50 (≈ 24.7 µM) | >200 | CSCC[C@H](NC(=O)[C@H](CCCNC(=N)N)NC(=O)[C@H](Cc1c[nH]c2ccccc12)NC(=O)[C@H](CCC(N)=O)NC(=O)[C@H](Cc1c[nH]c2ccccc12)NC(=O)[C@H](CCCNC(=N)N)NC(=O)[C@H](CCCNC(=N)N)NC(=O)[C@H](CSCNC(C)=O)NC(=O)[C@H](CCCCN)NC(=O)[C@@H](N)Cc1ccccc1)C(=O)N[C@@H](CCCCN)C(=O)N[C@@H](CCCCN)C(=O)N[C@@H](C)C(=O)NCC(=O)N[C@@H](C)C(=O)O [LFB A13] (H-FKC(Acm)RRWQWRMKKAGA-OH) |  |
| 70 (≈ 35.2 µM) | >200 | CSCC[C@H](NC(=O)[C@H](CCCNC(=N)N)NC(=O)[C@H](Cc1c[nH]c2ccccc12)NC(=O)[C@H](CCC(N)=O)NC(=O)[C@H](Cc1c[nH]c2ccccc12)NC(=O)[C@H](CCCNC(=N)N)NC(=O)[C@H](CCCNC(=N)N)NC(=O)[C@H](CSCNC(C)=O)NC(=O)[C@H](CCCCN)NC(=O)[C@H](C)N)C(=O)N[C@@H](CCCCN)C(=O)N[C@@H](CCCCN)C(=O)N[C@@H](CC(C)C)C(=O)NCC(=O)N[C@@H](C)C(=O)O [LFB A1] (H-AKC(Acm)RRWQWRMKKLGA-OH) |  |

More lines, now with the values behind:

| Compound | MIC E. coli ([1]; ATCC 25922) [µg/mL] | MIC S. aureus ([2]; ATCC 25923) [µg/mL] | further results |
| --- | --- | --- | --- |
| CSCC[C@H](NC(=O)[C@H](CCCNC(=N)N)NC(=O)[C@H](Cc1ccc(-c2ccccc2)cc1)NC(=O)[C@H](CCC(N)=O)NC(=O)[C@H](Cc1c[nH]c2ccccc12)NC(=O)[C@H](CCCNC(=N)N)NC(=O)[C@H](CCCNC(=N)N)NC(=O)[C@H](CSCNC(C)=O)NC(=O)[C@H](CCCCN)NC(=O)[C@@H](N)Cc1ccccc1)C(=O)N[C@@H](CCCCN)C(=O)N[C@@H](CCCCN)C(=O)N[C@@H](CC(C)C)C(=O)NCC(=O)N[C@@H](C)C(=O)O [LFB Bip8] | 15 (≈ 7.13 µM) | 15 (≈ 7.13 µM) |  |
| CSCC[C@H](NC(=O)[C@H](CCCNC(=N)N)NC(=O)[C@H](Cc1c[nH]c2ccccc12)NC(=O)[C@H](CCC(N)=O)NC(=O)[C@H](Cc1c[nH]c2ccccc12)NC(=O)[C@H](CCCNC(=N)N)NC(=O)[C@H](CCCNC(=N)N)NC(=O)[C@H](CSCNC(C)=O)NC(=O)[C@H](C)NC(=O)[C@@H](N)Cc1ccccc1)C(=O)N[C@@H](CCCCN)C(=O)N[C@@H](CCCCN)C(=O)N[C@@H](CC(C)C)C(=O)NCC(=O)N[C@@H](C)C(=O)O [LFB A2] (H-FAC(Acm)RRWQWRMKKLGA-OH) | 80 (≈ 39.8 µM) | >200 |  |
| RRWYRWWR-NH2 [LFM 17-24 R1,2, 8 W3, 7Y4NH2] | 5 | 2.5 |  |
| YRWARWWRR-NH2 [LFM 17-25 A4R2,8, 9W3, 7Y1NH2] | 10 | 5 |  |
| CC(=O)NCSC[C@H](NC(=O)[C@H](CCCCN)NC(=O)[C@@H](N)Cc1ccccc1)C(=O)N[C@@H](CCCNC(=N)N)C(=O)N[C@@H](CCCNC(=N)N)C(=O)N[C@@H](Cc1c[nH]c2ccccc12)C(=O)N[C@@H](CCC(N)=O)C(=O)N[C@@H](Cc1c[nH]c2ccccc12)C(=O)N[C@@H](CCCNC(=N)N)C(=O)N[C@@H](C)C(=O)N[C@@H](CCCCN)C(=O)N[C@@H](CCCCN)C(=O)N[C@@H](CC(C)C)C(=O)NCC(=O)N[C@@H](C)C(=O)O [LFB A10] (H-FKC(Acm)RRWQWRAKKLGA-OH) | 140 (≈ 69.8 µM) | >200 |  |
| RRWQWRMKKLGA-OH [LFB 20-31] |  |  | MIC E. coli ATCC 25922 ([1]; ATCC 25922): 100 µg/mL; MIC E. coli ATCC 25922 ([1]; Table 1, value in brackets): 62 µM; MIC E. coli ([1]; Table 11): 100 µg/mL; MIC S. aureus ATCC 25923 ([2]; ATCC 25923): 200 µg/mL; MIC S. aureus ATCC 25923 ([2]; Table 1, value in brackets): 124 µM; MIC S. aureus ([2]; Table 11): 200 µg/mL |
| CSCC[C@H](NC(=O)[C@H](CCCNC(=N)N)NC(=O)[C@H](Cc1c[nH]c2ccccc12)NC(=O)[C@H](CCC(N)=O)NC(=O)[C@H](Cc1c[nH]c2ccccc12)NC(=O)[C@H](CCCNC(=N)N)NC(=O)[C@H](Cc1ccccc1)NC(=O)[C@H](CSCNC(C)=O)NC(=O)[C@H](CCCCN)NC(=O)[C@@H](N)CCCCN)C(=O)N[C@@H](CCCCN)C(=O)N[C@@H](CCCCN)C(=O)N[C@@H](CC(C)C)C(=O)NCC(=O)N[C@@H](C)C(=O)O [LFB F4K1] (H-KKC(Acm)FRWQWRMKKLGA-OH; N-terminus assumed) |  |  | MIC E. coli ATCC 25922 ([1]; ATCC 25922): 20 µg/mL; MIC E. coli ATCC 25922 ([1]; Table 1, value in brackets): 10 µM; MIC E. coli ([1]; Table 12): 20 µg/mL (≈ 9.82 µM); MIC S. aureus ATCC 25923 ([2]; ATCC 25923): 200 µg/mL; MIC S. aureus ATCC 25923 ([2]; Table 1, value in brackets): 100 µM; MIC S. aureus ([2]; Table 12): 200 µg/mL (≈ 98.2 µM) |
| SKCRQWQSKIRRTNP [Native LFP, porcine region corresponding to LFB 17-31] |  |  | MIC E. coli ([1]; Table 4): > 1000 µg/mL; MIC S. aureus ([2]; Table 4, unit assumed): > 1000 µg/mL |
| CSCC[C@H](NC(=O)[C@H](CCCNC(=N)N)NC(=O)[C@H](Cc1c[nH]c2ccccc12)NC(=O)[C@H](CCC(N)=O)NC(=O)[C@H](Cc1c[nH]c2ccccc12)NC(=O)[C@H](CCCNC(=N)N)NC(=O)[C@H](CCCNC(=N)N)NC(=O)[C@H](CSCNC(C)=O)NC(=O)[C@H](CCCCN)NC(=O)[C@@H](N)Cc1ccccc1)C(=O)N[C@@H](C)C(=O)N[C@@H](CCCCN)C(=O)N[C@@H](CC(C)C)C(=O)NCC(=O)N[C@@H](C)C(=O)O [LFB A11] (H-FKC(Acm)RRWQWRMAKLGA-OH) | 70 (≈ 34.9 µM) | >200 |  |
| CSCC[C@H](NC(=O)[C@H](CCCNC(=N)N)NC(=O)[C@H](Cc1c[nH]c2ccccc12)NC(=O)[C@H](CCC(N)=O)NC(=O)[C@H](Cc1c[nH]c2ccccc12)NC(=O)[C@H](CCCNC(=N)N)NC(=O)[C@H](CCCNC(=N)N)NC(=O)[C@H](CSCNC(C)=O)NC(=O)[C@@H](N)CCCCN)C(=O)N[C@@H](CCCCN)C(=O)N[C@@H](CCCCN)C(=O)N[C@@H](CC(C)C)C(=O)NCC(=O)N[C@@H](C)C(=O)O [LFB 18-31] (H-KC(Acm)RRWQWRMKKLGA-OH; N-terminus assumed) |  |  | MIC E. coli ATCC 25922 ([1]; ATCC 25922): 80 µg/mL; MIC E. coli ATCC 25922 ([1]; Table 1, value in brackets): 43 µM; MIC E. coli ([1]; Table 11): 80 µg/mL (≈ 41.7 µM); MIC S. aureus ATCC 25923 ([2]; ATCC 25923): 200 µg/mL; MIC S. aureus ATCC 25923 ([2]; Table 1, value in brackets): 108 µM; MIC S. aureus ([2]; Table 11): 200 µg/mL (≈ 104 µM) |
| CSCC[C@H](NC(=O)[C@H](CCCNC(=N)N)NC(=O)[C@H](Cc1c[nH]c2ccccc12)NC(=O)[C@H](CCC(N)=O)NC(=O)[C@H](Cc1ccc(-c2ccccc2)cc1)NC(=O)[C@H](CCCNC(=N)N)NC(=O)[C@H](CCCNC(=N)N)NC(=O)[C@H](CSCNC(C)=O)NC(=O)[C@H](CCCCN)NC(=O)[C@@H](N)Cc1ccccc1)C(=O)N[C@@H](CCCCN)C(=O)N[C@@H](CCCCN)C(=O)N[C@@H](CC(C)C)C(=O)NCC(=O)N[C@@H](C)C(=O)O [LFB Bip6] | 25 (≈ 11.9 µM) | 25 (≈ 11.9 µM) |  |
| CSCC[C@H](NC(=O)[C@H](CCCNC(=N)N)NC(=O)[C@H](Cc1c[nH]c2ccccc12)NC(=O)[C@H](CCC(N)=O)NC(=O)[C@H](Cc1c[nH]c2ccccc12)NC(=O)[C@H](CCCNC(=N)N)NC(=O)[C@H](CC(C)C)NC(=O)[C@H](CSCNC(C)=O)NC(=O)[C@H](CCCCN)NC(=O)[C@H](C)N)C(=O)N[C@@H](CCCNC(=N)N)C(=O)N[C@@H](CCCCN)C(=O)N[C@@H](Cc1ccc(O)cc1)C(=O)NCC(=O)NCC(=O)O [LFM A1 R9 W8 Y13] (H-AKC(Acm)LRWQWRMRKYGG-OH; N-terminus and C-terminus assumed) | 50 (≈ 24.9 µM) | 200 (≈ 99.5 µM) |  |
